According to PubChem BioAssay (NCI):
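How tested: cells in 96-well plates exposed to compound for 48 hours at five concentrations. The concentration for 50% growth inhibition is given as GI50. TGI: concentration producing complete growth inhibition.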

Legend:
Assay in all cases: NCI-60 cell line screen, 48 h
A549 NSCLC = system: A549 NSCLC
NCI/ADR-RES ovarian = system: NCI/ADR-RES ovarian
TK-10 renal = system: TK-10 renal
U251 CNS = system: U251 CNS
UO-31 renal = system: UO-31 renal
IGROV1 ovarian = system: IGROV1 ovarian
MCF7 breast = system: MCF7 breast
SF-268 CNS = system: SF-268 CNS
UACC-257 melanoma = system: UACC-257 melanoma
RPMI-8226 leukemia = system: RPMI-8226 leukemia
SW-620 colon = system: SW-620 colon
CAKI-1 renal = system: CAKI-1 renal
KM12 colon = system: KM12 colon
SNB-75 CNS = system: SNB-75 CNS
MALME-3M melanoma = system: MALME-3M melanoma
MOLT-4 leukemia = system: MOLT-4 leukemia
PC-3 prostate = system: PC-3 prostate
HOP-62 NSCLC = system: HOP-62 NSCLC
OVCAR-4 ovarian = system: OVCAR-4 ovarian
ACHN renal = system: ACHN renal
UACC-62 melanoma = system: UACC-62 melanoma
NCI-H522 lung = system: NCI-H522 lung
MDA-MB-435 = system: MDA-MB-435
EKVX NSCLC = system: EKVX NSCLC
SK-MEL-5 melanoma = system: SK-MEL-5 melanoma
SR leukemia = system: SR leukemia
COLO 205 colon = system: COLO 205 colon
HS 578T breast = system: HS 578T breast
OVCAR-8 ovarian = system: OVCAR-8 ovarian
HCT-15 colon = system: HCT-15 colon
RXF 393 renal = system: RXF 393 renal
SK-MEL-28 melanoma = system: SK-MEL-28 melanoma
MDA-MB-231 breast = system: MDA-MB-231 breast
HCC-2998 colon = system: HCC-2998 colon
HL-60(TB) leukemia = system: HL-60(TB) leukemia
DU-145 prostate = system: DU-145 prostate
HCT-116 colon = system: HCT-116 colon
BT-549 breast = system: BT-549 breast
HOP-92 NSCLC = system: HOP-92 NSCLC
NCI-H460 lung = system: NCI-H460 lung
SK-OV-3 ovarian = system: SK-OV-3 ovarian
NCI-H226 lung = system: NCI-H226 lung
SK-MEL-2 melanoma = system: SK-MEL-2 melanoma
LOX IMVI melanoma = system: LOX IMVI melanoma
A498 renal = system: A498 renal
SF-295 CNS = system: SF-295 CNS
NCI-H23 lung = system: NCI-H23 lung
OVCAR-5 ovarian = system: OVCAR-5 ovarian
HT29 colon = system: HT29 colon
SNB-19 CNS = system: SNB-19 CNS
K-562 leukemia = system: K-562 leukemia
T-47D breast = system: T-47D breast
M14 melanoma = system: M14 melanoma
OVCAR-3 ovarian = system: OVCAR-3 ovarian
SN12C renal = system: SN12C renal
786-0 renal = system: 786-0 renal
SF-539 CNS = system: SF-539 CNS

For `Clc1ccc2c(c1)C(Br)c1cc(Cl)cc(Cl)c1-2` (centres undefined), the GI50 (A549 NSCLC) was > 100 µM, the TGI (A549 NSCLC) was > 100 µM and the GI50 (NCI/ADR-RES ovarian) was 42.7 µM. For the same compound, the TGI (NCI/ADR-RES ovarian) was > 100 µM, the GI50 (TK-10 renal) was > 100 µM and the TGI (TK-10 renal) was > 100 µM. The GI50 (U251 CNS) was > 100 µM, the TGI (U251 CNS) was > 100 µM and the GI50 (UO-31 renal) was 67.7 µM. The TGI (UO-31 renal) was > 100 µM, the GI50 (IGROV1 ovarian) was 18.6 µM and the TGI (IGROV1 ovarian) was > 100 µM. The GI50 (MCF7 breast) was 20.5 µM, the TGI (MCF7 breast) was > 100 µM and the GI50 (SF-268 CNS) was 29.9 µM. The TGI (SF-268 CNS) was > 100 µM, the GI50 (UACC-257 melanoma) was > 100 µM and the TGI (UACC-257 melanoma) was > 100 µM. For the same compound, the GI50 (RPMI-8226 leukemia) was 38.9 µM, the TGI (RPMI-8226 leukemia) was > 100 µM and the GI50 (SW-620 colon) was 5.46 µM. For the same compound, the TGI (SW-620 colon) was > 100 µM, the GI50 (CAKI-1 renal) was 56.4 µM and the TGI (CAKI-1 renal) was > 100 µM. For the same compound, the GI50 (KM12 colon) was > 100 µM, the TGI (KM12 colon) was > 100 µM and the GI50 (SNB-75 CNS) was 19 µM. For the same compound, the TGI (SNB-75 CNS) was > 100 µM, the GI50 (MALME-3M melanoma) was 3.49 µM and the TGI (MALME-3M melanoma) was > 100 µM. For the same compound, the GI50 (MOLT-4 leukemia) was 10.8 µM, the TGI (MOLT-4 leukemia) was > 100 µM and the GI50 (PC-3 prostate) was > 100 µM. For the same compound, the TGI (PC-3 prostate) was > 100 µM, the GI50 (HOP-62 NSCLC) was > 100 µM and the TGI (HOP-62 NSCLC) was > 100 µM. For the same compound, the GI50 (OVCAR-4 ovarian) was 71.5 µM, the TGI (OVCAR-4 ovarian) was > 100 µM and the GI50 (ACHN renal) was > 100 µM. The TGI (ACHN renal) was > 100 µM, the GI50 (UACC-62 melanoma) was 39.9 µM and the TGI (UACC-62 melanoma) was > 100 µM. For the same compound, the GI50 (NCI-H522 lung) was 2.53 µM, the TGI (NCI-H522 lung) was > 100 µM and the GI50 (MDA-MB-435) was 5.19 µM. For the same compound, the TGI (MDA-MB-435) was > 100 µM, the GI50 (EKVX NSCLC) was 2.82 µM and the TGI (EKVX NSCLC) was > 100 µM. For the same compound, the GI50 (SK-MEL-5 melanoma) was 6.81 µM, the TGI (SK-MEL-5 melanoma) was 72.3 µM and the GI50 (SR leukemia) was 4.34 µM. For the same compound, the TGI (SR leukemia) was > 100 µM, the GI50 (COLO 205 colon) was > 100 µM and the TGI (COLO 205 colon) was > 100 µM. The GI50 (HS 578T breast) was > 100 µM, the TGI (HS 578T breast) was > 100 µM and the GI50 (OVCAR-8 ovarian) was 28.6 µM. For the same compound, the TGI (OVCAR-8 ovarian) was > 100 µM, the GI50 (HCT-15 colon) was 74.5 µM and the TGI (HCT-15 colon) was > 100 µM. The GI50 (RXF 393 renal) was 27 µM, the TGI (RXF 393 renal) was 86.6 µM and the GI50 (SK-MEL-28 melanoma) was > 100 µM. The TGI (SK-MEL-28 melanoma) was > 100 µM, the GI50 (MDA-MB-231 breast) was 30.8 µM and the TGI (MDA-MB-231 breast) was > 100 µM. The GI50 (HCC-2998 colon) was > 100 µM, the TGI (HCC-2998 colon) was > 100 µM and the GI50 (HL-60(TB) leukemia) was > 100 µM. The TGI (HL-60(TB) leukemia) was > 100 µM, the GI50 (DU-145 prostate) was > 100 µM and the TGI (DU-145 prostate) was > 100 µM. The GI50 (HCT-116 colon) was 8.74 µM, the TGI (HCT-116 colon) was > 100 µM and the GI50 (BT-549 breast) was 3.56 µM. For the same compound, the TGI (BT-549 breast) was 41.6 µM, the GI50 (HOP-92 NSCLC) was 12.4 µM and the TGI (HOP-92 NSCLC) was > 100 µM. The GI50 (NCI-H460 lung) was > 100 µM, the TGI (NCI-H460 lung) was > 100 µM and the GI50 (SK-OV-3 ovarian) was > 100 µM. The TGI (SK-OV-3 ovarian) was > 100 µM, the GI50 (NCI-H226 lung) was 2.75 µM and the TGI (NCI-H226 lung) was 34.8 µM. For the same compound, the GI50 (SK-MEL-2 melanoma) was 33.8 µM, the TGI (SK-MEL-2 melanoma) was > 100 µM and the GI50 (LOX IMVI melanoma) was 2.46 µM. For the same compound, the TGI (LOX IMVI melanoma) was > 100 µM, the GI50 (A498 renal) was > 100 µM and the TGI (A498 renal) was > 100 µM. For the same compound, the GI50 (SF-295 CNS) was > 100 µM, the TGI (SF-295 CNS) was > 100 µM and the GI50 (NCI-H23 lung) was 2.83 µM. The TGI (NCI-H23 lung) was 36.8 µM, the GI50 (OVCAR-5 ovarian) was > 100 µM and the TGI (OVCAR-5 ovarian) was > 100 µM. The GI50 (HT29 colon) was > 100 µM, the TGI (HT29 colon) was > 100 µM and the GI50 (SNB-19 CNS) was > 100 µM. For the same compound, the TGI (SNB-19 CNS) was > 100 µM, the GI50 (K-562 leukemia) was 8.74 µM and the TGI (K-562 leukemia) was > 100 µM. For the same compound, the GI50 (T-47D breast) was > 100 µM, the TGI (T-47D breast) was > 100 µM and the GI50 (M14 melanoma) was 3.35 µM. The TGI (M14 melanoma) was 35.7 µM, the GI50 (OVCAR-3 ovarian) was > 100 µM and the TGI (OVCAR-3 ovarian) was > 100 µM. The GI50 (SN12C renal) was 3.84 µM, the TGI (SN12C renal) was > 100 µM and the GI50 (786-0 renal) was > 100 µM. The TGI (786-0 renal) was > 100 µM, the GI50 (SF-539 CNS) was 82.5 µM and the TGI (SF-539 CNS) was > 100 µM.
